Experiments:
[1] = tested on: root-knot nematode Meloidogyne incognita; assay: Soil nematicide assay targeting root-knot nematode Meloidogyne incognita on tomato (soil drench); format: in vivo; settings: tomato plants, one month after inoculation with 1000 J2 larvae
Excerpt: Soil nematicide assay targeting root-knot nematode Meloidogyne incognita on tomato The test compounds were solubilized in acetone and diluted with water and surfactant to the required test concentrations. The test solution was applied as a soil drench to transplanted tomato plants in cells with sandy loam mixed with sand. One thousand root-knot J2 larvae were applied as an aqueous suspension drenched on the soil surface. The plants were maintained in the greenhouse and, one month after inoculation, the plant roots were washed free of soil. The root-knot galls on the root system of each plant were counted. Treatments were replicated three times. Percent control of root-knot was calculated for the treated plants relative to control plants treated with the acetone-surfactant carrier using the following formula: % control of root knot galls=100×((median number of galls on control plants−median number of galls on treated plants)/median number of galls on control plants) In this test, compound A which is known from EP-A 1 000 946 as example 1 acted as comparison active ingredient.

[2] = tested on: root-knot nematode Meloidogyne sp; assay: Soil nematicide assay targeting root-knot nematode Meloidogyne sp on tomato (granular formulation); format: in vivo; settings: 1 kg/ha, granular formulation of 5% active ingredient on gypsum carrier, infested soil, tomato plants, visual estimation
Method: Soil nematicide assay targeting root-knot nematode Meloidogyne sp on tomato
The test compounds were applied as granular formulations of 5% active ingredient on a gypsum carrier to soil infested with root-knot nematodes. Tomato plants were transplanted into the soil. After galling developed in untreated control plants, tomato plants were harvested and the roots assessed for root knot galling. Based on visual estimation, the percentage of the tomato root-mass that was galled was determined. Percent control root-knot was calculated for the treated plants relative to untreated control plants using the following formula: % control of root knot galling=100×((galling level of untreated plants−galling level of treated plants)/galling level of untreated plants)
In this test, compound A which is known from EP-A 1 000 946 as example 1 acted as comparison active ingredient.

SMILES	% control of root knot galls ([1]; 0.16 kg/ha) [%]	% control of root knot galls ([1]; 0.63 kg/ha) [%]	% control of root knot galling [2] [%]
FC(F)=C(F)CCSc1nc2cccnc2s1 [I.1—1, 2-(3,4,4-Trifluoro-but-3-enylsulfanyl)-thiazolo[5,4-b]pyridine]	94	100	47
FC(F)=C(F)CCSc1nc2ncccc2s1 [compound A]	13	71	25

From patent publication US7105524B2, “Pesticidal and parasiticidal di-and trifluorosubstituted alkene compounds” (BASF Aktiengesellschaft, priority 2001, dated 2006)
